Where two headings read alike, the source gives them in different places. Bridge positions count the residues as written; N and C are the ends. Square brackets hold non-standard residues; d marks the D form. Peptide text beside a SMILES is read from it. R5 = C=CCCC[C@@](C)(N)C(=O)O
Key:
[1] = test system: Enterobacter aerogenes; experiment: microbe, parasite or virus in culture; format: cell-based; conditions: MHB medium
Method: (§1) The antimicrobial assay was performed according to a modified National Committee for Clinical Laboratory Standards (NCCLS) protocol ([41], [42]). Briefly, 5 × 10^5 CFU/mL bacterial cells were treated with various peptide concentrations and incubated at 37 ± 2°C for 16 to 20 h. The lowest concentration with clear wells was recorded as the MIC for each test molecule. The clear wells were further plated in Mueller-Hinton agar (MHA) plates, followed by incubation overnight at 37 ± 2°C. After plating, the lowest concentration at which no growth was observed was recorded as the MBC. For the serum sensitivity assay, the antimicrobial activity of the peptides was tested in medium containing 50% human serum ([43], [44]).

[2] = test system: Escherichia coli; experiment: microbe, parasite or virus in culture; format: cell-based
Method: as §1

[3] = test system: Pseudomonas aeruginosa; experiment: microbe, parasite or virus in culture; format: cell-based
Method: as §1

[4] = test system: NDM-1 Klebsiella pneumoniae; experiment: microbe, parasite or virus in culture; format: cell-based
Method: as §1

[5] = test system: Salmonella enterica; experiment: microbe, parasite or virus in culture; format: cell-based; conditions: MHB medium
Method: as §1

[6] = test system: MDR A. baumannii 1702; experiment: microbe, parasite or virus in culture; format: cell-based, Acinetobacter baumannii; conditions: for MBC: read-out: MBC; for MIC: read-out: MIC
Method: as §1

[7] = test system: MDR A. baumannii 2962; experiment: microbe, parasite or virus in culture; format: cell-based, Acinetobacter baumannii
Method: as §1

[8] = test system: MDR A. baumannii 1607; experiment: microbe, parasite or virus in culture; format: cell-based, Acinetobacter baumannii
Method: as §1

[9] = test system: MDR A. baumannii 2088; experiment: microbe, parasite or virus in culture; format: cell-based, Acinetobacter baumannii
Method: as §1

[10] = test system: MDR A. baumannii 921; experiment: microbe, parasite or virus in culture; format: cell-based, Acinetobacter baumannii
Method: as §1

[11] = test system: MDR A. baumannii 2998; experiment: microbe, parasite or virus in culture; format: cell-based, Acinetobacter baumannii
Method: as §1

[12] = test system: MDR A. baumannii 1033; experiment: microbe, parasite or virus in culture; format: cell-based, Acinetobacter baumannii; conditions: for MBC: read-out: MBC; for MIC: read-out: MIC
Method: as §1

[13] = test system: MDR A. baumannii 1019; experiment: microbe, parasite or virus in culture; format: cell-based, Acinetobacter baumannii
Method: as §1

[14] = test system: MDR A. baumannii 2997; experiment: microbe, parasite or virus in culture; format: cell-based, Acinetobacter baumannii; conditions: for MBC: read-out: MBC; for MIC: read-out: MIC
Method: as §1

[15] = test system: MDR A. baumannii 3618; experiment: microbe, parasite or virus in culture; format: cell-based, Acinetobacter baumannii
Method: as §1

[16] = test system: MDR A. baumannii 2982; experiment: microbe, parasite or virus in culture; format: cell-based, Acinetobacter baumannii
Method: as §1

[17] = test system: MDR A. baumannii 14B0091; experiment: microbe, parasite or virus in culture; format: cell-based, Acinetobacter baumannii
Method: as §1

[18] = test system: Staphylococcus aureus; format: cell-based
Method: as §1

[19] = test system: Acinetobacter baumannii; experiment: microbe, parasite or virus in culture; format: cell-based; conditions: for MBC: read-out: MBC; for MIC: read-out: MIC
Method: as §1, with “[44]). The antimicrobial assay was performed in the presence of physiological ions and glucose. The test media were supplemented with MgCl2 (1 mM), CaCl2 (2 mM), NaCl (150 mM), KCl (4.5 mM), NH4Cl (6 μM) ([45], [46]), or glucose (0.2%) ([47]), followed by routine antimicrobial assay as described previously. For the pH sensitivity assay, the antimicrobial assay was performed in media adjusted to pH values ranging from 4 to 12. To estimate the effects of temperature on antimicrobial activity, the peptide was incubated for 1 h at temperatures ranging from 40 to 100°C ([48]), followed by the antimicrobial assay as described above.” for “[44]).”

[20] = test system: human red blood cells; format: cell-based
Method: The hemolytic assay was performed after approval from the institutional ethics committee (Academia Sinica Institutional Review Board [IRB]; ID no. AS-IRB02-111075). Blood was collected from healthy humans, and 50 μL of a 2% blood cell suspension in normal saline was treated with an equal volume of peptide at different concentrations. The mixture was then incubated at 37 ± 2°C for 1 h. Next, the cell suspension was centrifuged at 1,000 × g for 10 min. Percent hemolysis was estimated by the absorbance of treated and control supernatant samples at 540 nm ([23], [44]).

[21] = HS, 50% human serum containing MHB medium
[22] = HS, MH medium containing 50% human serum
[23] = HS, MH medium containing 50% human serum, read-out: MBC

CC[C@H](C)[C@H](NC(=O)[C@H](CCCCN)NC(=O)[C@H](CCC(=O)O)NC(=O)[C@H](CCCCN)NC(=O)[C@H](CO)NC(=O)[C@H](CCCCN)NC(=O)[C@H](CCCNC(=N)N)NC(=O)[C@H](Cc1ccccc1)NC(=O)[C@H](Cc1ccccc1)NC(=O)[C@H](CC(=O)O)NC(=O)CNC(=O)[C@H](CC(C)C)NC(=O)[C@@H](N)CC(C)C)C(=O)NCC(=O)N[C@@H](CCCCN)C(=O)N[C@@H](CCC(=O)O)C(=O)N[C@@H](Cc1ccccc1)C(=O)N[C@@H](CCCCN)C(=O)N[C@@H](CCCNC(=N)N)C(=O)N[C@H](C(=O)N[C@H](C(=O)N[C@@H](CCC(N)=O)C(=O)N[C@@H](CCCNC(=N)N)C(=O)N[C@H](C(=O)N[C@@H](CCCCN)C(=O)N[C@@H](CC(=O)O)C(=O)N[C@@H](Cc1ccccc1)C(=O)N[C@@H](CC(C)C)C(=O)N[C@@H](CCCNC(=N)N)C(=O)N[C@@H](CC(N)=O)C(=O)N[C@@H](CC(C)C)C(=O)N[C@H](C(=O)N1CCC[C@H]1C(=O)N[C@@H](CCCNC(=N)N)C(=O)N[C@H](C(=O)N[C@@H](CCC(=O)O)C(=O)N[C@@H](CO)C(=O)O)[C@@H](C)O)C(C)C)[C@@H](C)CC)C(C)C)[C@@H](C)CC [LL-37]
>25 µM: MBC [2, 21] | MIC [2, 21] | MBC ([3]; HS, 50% human serum containing MHB medium, read-out: MBC) | MIC ([3]; HS, 50% human serum containing MHB medium, read-out: MIC) | MBC [4, 21] | MIC [4, 21] | MBC [5] | MIC [5] | MBC [6, 22] | MIC [6, 22] | MBC [7, 22] | MIC [7, 22] | MIC [8, 22] | MBC [8, 23] | MBC [9, 23] | MIC ([9]; HS, MH medium containing 50% human serum, read-out: MIC) | MBC [10, 22] | MIC [10, 22] | MIC [11, 22] | MBC [11, 23] | MBC [12, 22] | MIC [12, 22] | MBC [13, 22] | MIC [13, 22] | MBC [14, 22] | MIC [14, 22] | MBC [15, 22] | MIC [15, 22] | MBC [16, 22] | MIC [16, 22] | MBC [17, 22] | MIC [17, 22]
1.56 µM: MBC ([14]; MHB medium) | MIC ([14]; MHB medium)
3.13 µM: MBC ([6]; MHB medium) | MIC ([6]; MHB medium) | MIC ([8]; MHB medium) | MBC ([15]; MHB medium) | MIC ([15]; MHB medium) | MBC ([17]; MHB medium) | MIC ([17]; MHB medium)
25 µM: MBC ([4]; MHB medium) | MIC ([4]; MHB medium)
6.25 to 12.5 µM: MBC ([11]; MHB medium)
6.25 µM: MBC [1] | MIC [1] | MBC ([2]; MHB medium) | MIC ([2]; MHB medium) | MBC ([7]; MHB medium) | MIC ([7]; MHB medium) | MBC ([10]; MHB medium) | MIC ([10]; MHB medium) | MIC ([11]; MHB medium) | MBC ([12]; MHB medium) | MIC ([12]; MHB medium) | MBC ([13]; MHB medium) | MIC ([13]; MHB medium) | MIC ([16]; MHB medium)
6.25−12.5 μM: MBC ([3]; MHB medium) | MIC ([3]; MHB medium)
3.13 to 6.25 µM: MBC ([8]; MHB medium) | MBC ([9]; MHB medium) | MIC ([9]; MHB medium)
12.5 µM: MBC ([16]; MHB medium)

CC[C@H](C)[C@H](NC(=O)[C@@H](NC(=O)[C@@H](NC(=O)[C@@H](N)Cc1ccccc1)[C@@H](C)CC)[C@@H](C)CC)C(=O)N[C@@H](CCCCN)C(=O)N[C@@H](CCCCN)C(=O)N[C@@H](CO)C(=O)NCC(=O)NCC(=O)N[C@@H](CC(C)C)C(=O)N[C@]1(C)CCCC=CCCC[C@](C)(C(=O)NCC(=O)N[C@@H](C)C(=O)N[C@]2(C)CCCC=CCCC[C@](C)(C(=O)N[C@H](C(=O)N[C@@H](CCCCN)C(=O)N[C@@H](CCCCN)C(=O)O)[C@@H](C)CC)NC(=O)[C@H](CCCCN)NC(=O)[C@H](CCCCN)NC(=O)[C@H](CCCCN)NC2=O)NC(=O)[C@H](CCCCN)NC(=O)[C@H](CCCCN)NC(=O)[C@H](CCCCN)NC1=O [TP4-2] (H-FIIIKKSGGL[R5]KKK[R5]GA[R5]KKK[R5]IKK-OH; staple 11-15, 18-22; N-terminus and C-terminus assumed)
>100 µM: 15% hemolysis concn [20]
12.5 µM: MBC [19] | MIC [19]
>25 µM: MBC [18] | MIC [18]

CC[C@H](C)[C@H](NC(=O)[C@@H](NC(=O)[C@@H](N)Cc1ccccc1)[C@@H](C)CC)C(=O)N[C@]1(C)CCCC=CCCC[C@](C)(C(=O)NCC(=O)N[C@@H](CC(C)C)C(=O)N[C@]2(C)CCCC=CCCC[C@](C)(C(=O)NCC(=O)N[C@@H](C)C(=O)N[C@]3(C)CCCC=CCCC[C@](C)(C(=O)N[C@H](C(=O)N[C@@H](CCCCN)C(=O)N[C@@H](CCCCN)C(=O)O)[C@@H](C)CC)NC(=O)[C@H](CCCCN)NC(=O)[C@H](CCCCN)NC(=O)[C@H](CCCCN)NC3=O)NC(=O)[C@H](CCCCN)NC(=O)[C@H](CCCCN)NC(=O)[C@H](CCCCN)NC2=O)NC(=O)[C@H](CO)NC(=O)[C@H](CCCCN)NC(=O)[C@H](CCCCN)NC1=O [TP4-4] (H-FII[R5]KKS[R5]GL[R5]KKK[R5]GA[R5]KKK[R5]IKK-OH; staple 4-8, 11-15, 18-22; N-terminus and C-terminus assumed)
12.5 µM: MBC [19] | MIC [19]
>100 µM: 15% hemolysis concn [20]
>25 µM: MBC [18] | MIC [18]

Source: PMC10101059, “Rational Design of Stapled Antimicrobial Peptides to Enhance Stability and In Vivo Potency against Polymicrobial Sepsis” (Microbiology Spectrum, 2023)
